Source: US7410975B2, “Small molecule toll-like receptor (TLR) antagonists” (Coley Pharmaceutical Group, Inc., priority 2003, dated 2008)

Molecular target: T1, human TLR7 (hTLR7) (Homo sapiens, UniProt Q9NYK1)
T1 construct: expressed in transfected cells
T1 sequence (Q9NYK1 27-1049): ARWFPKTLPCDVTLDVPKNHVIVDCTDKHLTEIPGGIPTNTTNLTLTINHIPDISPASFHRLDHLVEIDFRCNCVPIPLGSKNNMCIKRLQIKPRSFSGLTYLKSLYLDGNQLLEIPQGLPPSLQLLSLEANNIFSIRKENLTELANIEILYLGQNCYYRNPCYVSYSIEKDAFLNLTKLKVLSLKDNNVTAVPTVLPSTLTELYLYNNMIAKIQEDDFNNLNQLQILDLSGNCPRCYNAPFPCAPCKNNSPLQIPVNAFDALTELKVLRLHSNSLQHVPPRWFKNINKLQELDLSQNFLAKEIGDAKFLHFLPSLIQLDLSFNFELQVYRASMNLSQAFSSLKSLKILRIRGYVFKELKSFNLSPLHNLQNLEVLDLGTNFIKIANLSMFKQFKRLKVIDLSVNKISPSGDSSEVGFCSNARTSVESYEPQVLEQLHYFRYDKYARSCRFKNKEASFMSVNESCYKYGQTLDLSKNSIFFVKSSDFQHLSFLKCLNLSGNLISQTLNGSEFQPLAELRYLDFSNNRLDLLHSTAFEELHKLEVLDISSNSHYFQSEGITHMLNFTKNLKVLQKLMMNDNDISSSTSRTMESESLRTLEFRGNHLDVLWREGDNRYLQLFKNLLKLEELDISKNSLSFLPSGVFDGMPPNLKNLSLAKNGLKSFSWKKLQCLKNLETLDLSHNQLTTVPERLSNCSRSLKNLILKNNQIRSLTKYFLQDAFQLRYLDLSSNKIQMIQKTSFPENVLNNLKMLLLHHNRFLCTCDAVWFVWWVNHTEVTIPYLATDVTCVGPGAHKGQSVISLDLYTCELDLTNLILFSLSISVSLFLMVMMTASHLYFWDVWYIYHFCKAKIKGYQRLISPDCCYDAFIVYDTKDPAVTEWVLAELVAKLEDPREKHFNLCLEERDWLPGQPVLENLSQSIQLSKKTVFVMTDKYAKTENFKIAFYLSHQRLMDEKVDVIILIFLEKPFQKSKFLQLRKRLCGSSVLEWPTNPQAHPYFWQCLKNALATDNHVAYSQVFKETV
Assay: Antagonist screen, hTLR7-NFκB-293 cells, NF-κB-luciferase reporter, with EC50 of R848
Assay type: cell-based
Settings: compound at 0.5, 5, 50 μg/ml; EC50 concentration of R848; 16 h; NF-κB-luciferase
Description: The method is described in greater detail as follows. The cells for each individual cell clone (hTLR3-NFκB-293, hTLR7-NFκB-293, hTLR8-NFκB-293 and hTLR9-NFκB-293) were counted and seeded one day before the stimulation at 1.5×10^4 cells per well in 96-well cell culture plates. To become adherent the cells were incubated after seeding overnight at 37° C. in 5% CO2 humidified air.
The screen for each compound was performed at the same time for all of the receptors TLR3, TLR7, TLR8 and TLR9. Up to fifteen test compounds, each assayed in duplicate at each of three different final concentrations (0.5 μg/ml, 5 μg/ml, and 50 μg/ml), were used for 16 h cell stimulation on a single multiwell culture plate. A 4× final concentration master plate was created to prepare the different test compounds before they were added to the cells.
Controls were added as duplicates individually for each cell clone on the cell culture plate. Positive controls were used as follows (final concentrations): 50 μg/ml poly(I:C) for hTLR3-NFκB-293; 8 μM resiquimod (R848) for hTLR7-NFκB-293; 30 μM R848 for hTLR8-NFκB-293; and 2.5 μM CpG-ODN 2006 for hTLR9-NFκB-293. Media alone was used as negative control. After addition of controls and small molecules, the cell clones were additionally stimulated with the EC50 concentration of the appropriate receptor-specific ligand.
The mean value of wells H2 and H5 (each with cells and EC50 concentration of the appropriate receptor-specific ligand) divided by the mean of wells H3 and H6 (each with cells alone) yielded the baseline response (i.e., fold induction of luciferase activity) to EC50 concentration of the appropriate receptor-specific ligand.
After 16 h stimulation the supernatant was removed and the cells treated with lysis buffer and stored at −80° C. before measuring.
For each screen result a graphical documentation was performed.
The baseline result (measured with addition of the EC50 concentration of the receptor-specific ligand) for each cell culture plate was measured as described above. Antagonistic effects were measured by down regulation compared to the baseline. Antagonists were scored as follows: • 13: compounds for which there was clear down regulation at 0.5 μg/ml, 5 μg/ml, and 50 μg/ml; • 12: compounds for which there was clear down regulation at 5 μg/ml and 50 μg/ml; • 11: compounds for which there was clear down regulation only at 50 μg/ml; • —: compounds for which there was no clear down regulation even at 50 μg/ml. Agonists
Results were expressed as fold induction over baseline luciferase activity measured in the absence of R848. […] Additional screening was performed in like manner using additional small molecules selected from another library or specifically prepared for this purpose. Scoring is reported as above but as applied to TLR7.

Molecule | hTLR7 (inhibitory effect, antagonist score)
Cc1cc(OC(=O)C2C3CCCCC32)c(C(C)C)cc1C1(c2cc(C(C)C)c(OC(=O)C3C4CCCCC43)cc2C)OC(=O)c2ccccc21 (centres unmarked) [compound 974] | 11 (compounds for which there was clear down regulation only at 50 μg/ml)
CCN(CC)CCCN(CC(=O)C1c2ccc(Cl)cc2NC(=O)c2ccccc21)C(=O)c1ccccc1 (centres unmarked) [compound 1013] | — (compounds for which there was no clear down regulation even at 50 μg/ml)
O=C1c2ccccc2C(=O)c2c1ccc1c(=O)n(C3CCCCC3)[nH]c21 [compound 1015] | — (compounds for which there was no clear down regulation even at 50 μg/ml)
CCOC(=O)c1cc([N+](=O)[O-])cc2c1-c1ccc([N+](=O)[O-])cc1C2=C(C#N)C#N [compound 1039] | 11 (compounds for which there was clear down regulation only at 50 μg/ml)
O=C1c2ccccc2C(=O)c2c1ccc1c(=O)n(-c3ccccc3)[nH]c21 [compound 1042] | 12 (compounds for which there was clear down regulation at 5 μg/ml and 50 μg/ml)
O=C(c1cccc2c1-c1ccccc1/C2=N\O)N1CCCCC1 [compound 1050] | 12 (compounds for which there was clear down regulation at 5 μg/ml and 50 μg/ml)
NC(=O)c1cccc2c1-c1ccccc1C2 [compound 1132] | 11 (compounds for which there was clear down regulation only at 50 μg/ml)
NC(=O)c1cc(N)c2c(c1N)C(=O)c1ccccc1C2=O [compound 1158] | — (compounds for which there was no clear down regulation even at 50 μg/ml)
CC(=O)Oc1cc(C)c(C2(c3cc(C(C)C)c(OC(C)=O)cc3C)OC(=O)c3ccccc32)cc1C(C)C [compound 1161] | 12 (compounds for which there was clear down regulation at 5 μg/ml and 50 μg/ml)
COC(=O)c1cccc(C(O)(c2ccccc2)c2ccccc2)c1S(=O)(=O)C(C)(C)C [compound 1187] | 12 (compounds for which there was clear down regulation at 5 μg/ml and 50 μg/ml)
CCOCCOC(=O)c1cc([N+](=O)[O-])cc2c1-c1c(cc([N+](=O)[O-])cc1[N+](=O)[O-])C2=C(C#N)C#N [compound 1241] | — (compounds for which there was no clear down regulation even at 50 μg/ml)
CC1CCN(C(=O)c2cccc3c2-c2ccccc2C3=O)CC1 [compound 1243] | 11 (compounds for which there was clear down regulation only at 50 μg/ml)
Cc1cccc(C2(c3cccc(C)c3)OC(=O)c3ccccc32)c1 [compound 1308] | 12 (compounds for which there was clear down regulation at 5 μg/ml and 50 μg/ml)
COCCCNC(=O)c1ccc2c(c1N)C(=O)c1ccccc1C2=O [compound 1337] | 11 (compounds for which there was clear down regulation only at 50 μg/ml)
O=C1Nc2ccccc2Oc2ccc([N+](=O)[O-])cc21 [compound 1352] | 13 (compounds for which there was clear down regulation at 0.5 μg/ml, 5 μg/ml, and 50 μg/ml)
Flunarizinehydrochloride [compound 312] | — (compounds for which there was no clear down regulation even at 50 μg/ml)
Maprotilinehydrochloride [compound 346] | 11 (compounds for which there was clear down regulation only at 50 μg/ml)
Metixene hydrochloride [compound 491] | 11 (compounds for which there was clear down regulation only at 50 μg/ml)
Prochlorperazinedimaleate [compound 399] | 12 (compounds for which there was clear down regulation at 5 μg/ml and 50 μg/ml)
Trifluoperazinedihydrochloride [compound 313] | 11 (compounds for which there was clear down regulation only at 50 μg/ml)
